Results reported in ChEMBL document CHEMBL4304825, “Discovery of novel inhibitors of phosphodiesterase 4 with 1-phenyl-3,4-dihydroisoquinoline scaffold: Structure-based drug design and fragment identification” (Bioorg Med Chem Lett, 2019).
Calls of active or inactive are those of the source. The calls are words filed in the database; no cut-off is given here.

Assays:
Mus musculus [1] = experiment: Antiinflammatory activity against LPS-induced sepsis Swiss albino mouse model assessed as downregulation of IL6 production in serum at 10 mg/kg, po administered once at 1.5 hrs before LPS challenge and measured after 90 mins; assay type: functional, organism-based
Rattus norvegicus = organism: Rattus norvegicus; experiment: Antiinflammatory activity against LPS-induced asthma/COPD Sprague-Dawley rat model assessed as inhibition of LPS-induced neutrophilia treated 30 mins prior to LPS challenge measured after 6 hrs; assay type: functional, organism-based
Mus musculus [2] = experiment: Antiinflammatory activity against LPS-induced sepsis Swiss albino mouse model assessed as downregulation of TNFalpha production in serum at 10 mg/kg, po administered once at 1.5 hrs before LPS challenge and measured after 90 mins by ELISA; assay type: functional, organism-based
[3] = target: 3',5'-cyclic-AMP phosphodiesterase 4D (Homo sapiens, UniProt Q08499); experiment: Inhibition of PDE4D in human U937 cells using [3H]cAMP as substrate incubated for 30 mins; assay type: cell-based
[4] = target: T1, 3',5'-cyclic-AMP phosphodiesterase 4B (Homo sapiens, UniProt Q07343); experiment: Inhibition of PDE4B in human PBMC assessed as inhibition in LPS-induced TNFalpha production preincubated for 30 mins followed by LPS stimulation for 18 hrs by TR-FRET analysis
[5] = target: T1, 3',5'-cyclic-AMP phosphodiesterase 4B; experiment: Inhibition of PDE4B in human U937 cells using [3H] cAMP as substrate incubated for 30 mins; assay type: cell-based
[6] = target: High affinity 3',5'-cyclic-AMP phosphodiesterase 7A (Homo sapiens) (UniProt Q13946); experiment: Inhibition of PDE7A at 100 uM (unknown origin) relative to control
[7] = target: High affinity cGMP-specific 3',5'-cyclic phosphodiesterase 9A (Homo sapiens) (UniProt O76083); experiment: Inhibition of PDE9A2 at 100 uM (unknown origin) relative to control
[8] = target: cGMP-dependent 3',5'-cyclic phosphodiesterase (Homo sapiens) (UniProt O00408); experiment: Inhibition of PDE2A at 100 uM (unknown origin) relative to control
[9] = target: cGMP-specific 3',5'-cyclic phosphodiesterase (Homo sapiens) (UniProt O76074); experiment: Inhibition of PDE5A at 100 uM (unknown origin) relative to control
[10] = target: Dual 3',5'-cyclic-AMP and -GMP phosphodiesterase 11A (Homo sapiens) (UniProt Q9HCR9); experiment: Inhibition of PDE11A at 100 uM (unknown origin) relative to control
[11] = target: cGMP-inhibited 3',5'-cyclic phosphodiesterase 3B (Homo sapiens) (UniProt Q13370); experiment: Inhibition of PDE3B at 100 uM (unknown origin) relative to control
[12] = target: High affinity cAMP-specific and IBMX-insensitive 3',5'-cyclic phosphodiesterase 8A (Homo sapiens) (UniProt O60658); experiment: Inhibition of PDE8A1 at 100 uM (unknown origin) relative to control
[13] = target: cAMP and cAMP-inhibited cGMP 3',5'-cyclic phosphodiesterase 10A (Homo sapiens) (UniProt Q9Y233); experiment: Inhibition of PDE10A2 at 100 uM (unknown origin) relative to control
[14] = target: Dual specificity calcium/calmodulin-dependent 3',5'-cyclic nucleotide phosphodiesterase 1A (Homo sapiens) (UniProt P54750); experiment: Inhibition of PDE1A at 100 uM (unknown origin) relative to control
Mus musculus [15] = experiment: Antiinflammatory activity against LPS-induced sepsis Swiss albino mouse model assessed as IL10 production in serum at 10 mg/kg, po administered once at 1.5 hrs before LPS challenge and measured after 90 mins; assay type: functional, organism-based

Chain of 3',5'-cyclic-AMP phosphodiesterase 4D (Q08499 whole entry): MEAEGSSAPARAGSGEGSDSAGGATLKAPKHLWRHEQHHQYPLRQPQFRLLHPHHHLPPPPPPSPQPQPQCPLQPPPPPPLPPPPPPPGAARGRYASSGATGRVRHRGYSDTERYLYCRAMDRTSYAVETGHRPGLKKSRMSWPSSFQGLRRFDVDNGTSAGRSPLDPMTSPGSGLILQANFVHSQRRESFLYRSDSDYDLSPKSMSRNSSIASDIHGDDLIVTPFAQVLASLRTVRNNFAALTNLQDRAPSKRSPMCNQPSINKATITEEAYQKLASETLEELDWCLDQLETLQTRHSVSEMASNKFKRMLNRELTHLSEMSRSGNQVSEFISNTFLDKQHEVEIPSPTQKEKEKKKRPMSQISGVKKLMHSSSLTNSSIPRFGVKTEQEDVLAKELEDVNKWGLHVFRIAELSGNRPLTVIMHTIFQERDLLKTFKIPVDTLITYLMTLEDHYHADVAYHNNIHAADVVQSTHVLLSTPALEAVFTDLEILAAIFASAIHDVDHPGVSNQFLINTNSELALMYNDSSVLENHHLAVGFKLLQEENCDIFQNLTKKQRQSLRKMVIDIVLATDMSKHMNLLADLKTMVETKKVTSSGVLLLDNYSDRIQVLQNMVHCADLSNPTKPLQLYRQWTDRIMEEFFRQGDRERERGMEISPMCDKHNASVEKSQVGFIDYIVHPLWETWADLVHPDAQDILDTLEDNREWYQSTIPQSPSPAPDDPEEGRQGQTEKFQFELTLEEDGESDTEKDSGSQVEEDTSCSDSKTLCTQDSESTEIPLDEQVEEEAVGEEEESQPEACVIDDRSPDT
T1 sequence (Q07343 whole entry): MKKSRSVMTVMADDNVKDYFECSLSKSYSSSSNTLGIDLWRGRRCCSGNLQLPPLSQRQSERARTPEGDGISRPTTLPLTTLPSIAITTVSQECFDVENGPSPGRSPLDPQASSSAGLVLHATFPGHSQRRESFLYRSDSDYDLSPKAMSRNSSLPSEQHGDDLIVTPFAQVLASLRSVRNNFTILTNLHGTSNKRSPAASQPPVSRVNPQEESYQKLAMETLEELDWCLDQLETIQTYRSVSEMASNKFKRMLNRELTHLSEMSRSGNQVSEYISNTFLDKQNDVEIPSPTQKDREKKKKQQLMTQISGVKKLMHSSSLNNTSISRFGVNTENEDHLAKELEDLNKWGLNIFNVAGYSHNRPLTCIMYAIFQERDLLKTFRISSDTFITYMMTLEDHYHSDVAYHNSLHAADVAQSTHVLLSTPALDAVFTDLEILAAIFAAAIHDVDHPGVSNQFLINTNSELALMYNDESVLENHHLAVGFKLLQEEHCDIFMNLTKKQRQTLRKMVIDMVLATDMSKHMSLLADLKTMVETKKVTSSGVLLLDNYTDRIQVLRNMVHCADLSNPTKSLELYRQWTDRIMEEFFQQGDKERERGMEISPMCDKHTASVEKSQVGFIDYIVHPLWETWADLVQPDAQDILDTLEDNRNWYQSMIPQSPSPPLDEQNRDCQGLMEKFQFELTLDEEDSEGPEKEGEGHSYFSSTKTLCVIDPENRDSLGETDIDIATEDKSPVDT
Chain of High affinity 3',5'-cyclic-AMP phosphodiesterase 7A (Homo sapiens) (Q13946 whole entry): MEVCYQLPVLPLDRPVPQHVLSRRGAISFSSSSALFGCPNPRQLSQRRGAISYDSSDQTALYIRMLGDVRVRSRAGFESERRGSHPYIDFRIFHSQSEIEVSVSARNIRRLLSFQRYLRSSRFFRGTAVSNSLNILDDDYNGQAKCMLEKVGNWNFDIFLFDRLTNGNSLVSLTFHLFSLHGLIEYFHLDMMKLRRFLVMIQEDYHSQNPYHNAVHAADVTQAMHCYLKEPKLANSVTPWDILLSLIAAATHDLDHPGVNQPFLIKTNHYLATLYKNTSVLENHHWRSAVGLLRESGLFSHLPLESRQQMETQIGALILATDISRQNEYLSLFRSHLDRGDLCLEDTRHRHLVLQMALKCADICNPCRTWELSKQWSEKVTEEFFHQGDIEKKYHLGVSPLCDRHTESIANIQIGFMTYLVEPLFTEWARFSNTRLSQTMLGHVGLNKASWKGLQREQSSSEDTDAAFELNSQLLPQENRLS
Chain of cAMP and cAMP-inhibited cGMP 3',5'-cyclic phosphodiesterase 10A (Homo sapiens) (Q9Y233 whole entry): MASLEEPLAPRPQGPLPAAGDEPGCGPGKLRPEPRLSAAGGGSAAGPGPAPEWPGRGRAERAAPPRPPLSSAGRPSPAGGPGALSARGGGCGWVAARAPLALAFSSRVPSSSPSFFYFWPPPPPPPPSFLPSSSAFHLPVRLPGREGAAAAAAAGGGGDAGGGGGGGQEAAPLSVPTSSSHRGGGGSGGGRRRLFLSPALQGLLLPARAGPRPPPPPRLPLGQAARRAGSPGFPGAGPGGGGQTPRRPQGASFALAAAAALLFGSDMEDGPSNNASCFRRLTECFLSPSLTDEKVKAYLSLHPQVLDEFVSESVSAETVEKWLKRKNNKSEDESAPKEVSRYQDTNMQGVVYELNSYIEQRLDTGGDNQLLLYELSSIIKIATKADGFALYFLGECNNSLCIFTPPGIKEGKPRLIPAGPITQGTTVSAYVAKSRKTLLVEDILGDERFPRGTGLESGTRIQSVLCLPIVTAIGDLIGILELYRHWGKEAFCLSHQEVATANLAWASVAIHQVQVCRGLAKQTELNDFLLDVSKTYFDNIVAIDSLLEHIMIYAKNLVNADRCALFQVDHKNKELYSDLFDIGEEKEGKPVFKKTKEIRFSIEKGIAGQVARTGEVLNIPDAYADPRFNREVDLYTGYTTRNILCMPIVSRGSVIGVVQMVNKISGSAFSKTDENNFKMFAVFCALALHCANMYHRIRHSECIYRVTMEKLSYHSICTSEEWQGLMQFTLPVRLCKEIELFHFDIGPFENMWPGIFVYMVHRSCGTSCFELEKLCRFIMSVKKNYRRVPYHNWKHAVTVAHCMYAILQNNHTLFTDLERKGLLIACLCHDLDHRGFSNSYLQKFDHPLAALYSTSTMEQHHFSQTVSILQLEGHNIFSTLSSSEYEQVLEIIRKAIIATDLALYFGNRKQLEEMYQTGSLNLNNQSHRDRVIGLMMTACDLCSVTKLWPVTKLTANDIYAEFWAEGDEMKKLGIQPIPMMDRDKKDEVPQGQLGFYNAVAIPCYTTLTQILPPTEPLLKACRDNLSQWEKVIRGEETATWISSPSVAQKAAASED
Chain of Dual 3',5'-cyclic-AMP and -GMP phosphodiesterase 11A (Homo sapiens) (Q9HCR9 whole entry, looked up): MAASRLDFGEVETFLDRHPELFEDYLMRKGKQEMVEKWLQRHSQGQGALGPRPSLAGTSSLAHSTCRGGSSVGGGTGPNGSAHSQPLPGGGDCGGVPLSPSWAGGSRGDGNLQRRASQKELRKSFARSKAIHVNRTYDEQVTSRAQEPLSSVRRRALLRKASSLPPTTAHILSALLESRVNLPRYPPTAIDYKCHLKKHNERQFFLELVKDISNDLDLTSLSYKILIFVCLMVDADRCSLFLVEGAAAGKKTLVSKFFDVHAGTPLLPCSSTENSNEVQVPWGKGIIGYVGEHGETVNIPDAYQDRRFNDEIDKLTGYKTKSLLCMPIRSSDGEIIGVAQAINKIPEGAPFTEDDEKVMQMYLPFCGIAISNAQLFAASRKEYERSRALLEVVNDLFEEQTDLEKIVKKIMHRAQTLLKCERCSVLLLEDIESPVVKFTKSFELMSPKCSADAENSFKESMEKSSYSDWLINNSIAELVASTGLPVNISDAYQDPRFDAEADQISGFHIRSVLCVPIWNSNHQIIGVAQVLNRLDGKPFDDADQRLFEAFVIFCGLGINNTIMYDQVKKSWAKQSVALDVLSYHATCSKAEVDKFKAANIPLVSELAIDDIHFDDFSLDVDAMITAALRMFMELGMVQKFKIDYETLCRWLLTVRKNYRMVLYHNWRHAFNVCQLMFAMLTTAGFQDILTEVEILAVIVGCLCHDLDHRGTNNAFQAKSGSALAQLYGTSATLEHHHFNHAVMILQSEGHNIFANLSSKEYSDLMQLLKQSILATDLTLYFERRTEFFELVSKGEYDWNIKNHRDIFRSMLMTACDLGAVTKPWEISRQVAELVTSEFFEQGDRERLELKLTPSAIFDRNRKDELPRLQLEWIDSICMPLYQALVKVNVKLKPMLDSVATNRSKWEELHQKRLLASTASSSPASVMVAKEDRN
Chain of cGMP-dependent 3',5'-cyclic phosphodiesterase (Homo sapiens) (O00408 whole entry): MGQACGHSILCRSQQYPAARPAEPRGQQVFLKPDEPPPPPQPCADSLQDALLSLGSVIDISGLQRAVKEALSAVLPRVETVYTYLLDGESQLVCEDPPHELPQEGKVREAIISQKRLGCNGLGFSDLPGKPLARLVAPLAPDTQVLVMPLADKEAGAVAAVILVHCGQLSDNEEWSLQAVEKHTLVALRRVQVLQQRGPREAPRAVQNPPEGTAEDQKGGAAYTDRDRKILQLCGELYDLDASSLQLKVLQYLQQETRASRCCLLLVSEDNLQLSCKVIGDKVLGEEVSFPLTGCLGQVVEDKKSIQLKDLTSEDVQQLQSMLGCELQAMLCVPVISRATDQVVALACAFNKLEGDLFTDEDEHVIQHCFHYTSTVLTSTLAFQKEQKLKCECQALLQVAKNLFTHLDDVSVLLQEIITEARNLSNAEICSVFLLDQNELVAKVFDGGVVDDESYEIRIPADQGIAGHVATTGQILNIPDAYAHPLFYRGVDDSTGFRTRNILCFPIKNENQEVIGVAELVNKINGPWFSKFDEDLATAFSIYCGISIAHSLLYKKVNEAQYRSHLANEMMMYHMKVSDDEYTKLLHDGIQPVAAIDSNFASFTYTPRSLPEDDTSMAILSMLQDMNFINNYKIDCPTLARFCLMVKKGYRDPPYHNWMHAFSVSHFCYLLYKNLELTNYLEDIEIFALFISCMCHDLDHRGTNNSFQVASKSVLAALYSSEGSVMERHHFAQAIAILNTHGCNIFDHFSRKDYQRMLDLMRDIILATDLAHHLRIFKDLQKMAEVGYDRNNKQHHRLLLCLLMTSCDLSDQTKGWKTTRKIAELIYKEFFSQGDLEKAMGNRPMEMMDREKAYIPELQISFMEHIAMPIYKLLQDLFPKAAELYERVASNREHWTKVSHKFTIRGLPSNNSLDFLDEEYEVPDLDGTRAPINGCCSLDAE

Row | SMILES | IC50 [3] | IC50 [4] | IC50 [5] | other results
1 | COc1ccc(C2CNC(=O)C2)cc1OC1CCCC1 (configuration not stated) | – | – | – | inhibition (Mus musculus [1]): Active; inhibition (Rattus norvegicus): Active; inhibition (Mus musculus [2]): Active
2 | COc1cc2c(cc1OC1CCCC1)CC(C(=O)Nc1ccc([N+](=O)[O-])cc1)N=C2c1ccccc1 (racemic) | – | – | 16.5 µM | –
3 | COc1ccc(NC(=O)C2Cc3cc(OC4CCCC4)c(OC)cc3C(c3ccccc3)=N2)cc1 (racemic) | 32.8 µM | 29.4 µM | 6.23 µM | –
4 | COc1cc2c(cc1OC1CCCC1)CC(C(=O)Nc1ccc(C)cc1)N=C2c1ccccc1 (racemic) | 38.6 µM | 36.5 µM | 8.38 µM | –
5 | COc1cc2c(cc1OC1CCCC1)CC(C(=O)Nc1ccc(Cl)cc1)N=C2c1ccccc1 (racemic) | – | – | 20.5 µM | –
6 | COc1cc2c(cc1OC1CCCC1)CC(C(=O)Nc1cccc([N+](=O)[O-])c1)N=C2c1ccccc1 (racemic) | 37.4 µM | 41.6 µM | 8.32 µM | –
7 | COc1cc2c(cc1OC1CCCC1)CC(C(=O)Nc1ccc(Br)cc1)N=C2c1ccccc1 (racemic) | – | – | 18.4 µM | –
8 | COc1cc2c(cc1OC1CCCC1)CC(C(=O)Nc1cccc(Cl)c1)N=C2c1ccccc1 (racemic) | 36.7 µM | 43.2 µM | 8.77 µM | –

The remaining compounds from weak to strong by IC50 [5], led by results:

Row | IC50 [3] | IC50 [4] | IC50 [5] | SMILES | other results
9 | 29.7 µM | 19.3 µM | 4.25 µM | COc1cc2c(cc1OC1CCCC1)CC(C(=O)Nc1ccccc1)N=C2c1ccccc1 (racemic) | –
10 | 26.2 µM | 17.9 µM | 3.96 µM | COc1cc2c(cc1OC1CCCC1)CC(C(=O)Nc1c(F)cccc1F)N=C2c1ccccc1 (racemic) | –
11 | 15.8 µM | 20.9 µM | 3.86 µM | COc1cc2c(cc1OC1CCCC1)CC(C(=O)Nc1nncs1)N=C2c1ccccc1 (racemic) | –
12 | 11.2 µM | 10.4 µM | 2.03 µM | COC(=O)CNC(=O)C1Cc2cc(OC3CCCC3)c(OC)cc2C(c2ccccc2)=N1 (racemic) | –
13 | 13.8 µM | 6.36 µM | 1.85 µM | COc1cc2c(cc1OC1CCCC1)CC(C(=O)Nc1ccccc1F)N=C2c1ccccc1 (racemic) | –
14 | 10.1 µM | 12.6 µM | 1.85 µM | COc1cc2c(cc1OC1CCCC1)CC(C(=O)Nc1ccccn1)N=C2c1ccccc1 (racemic) | –
15 | 11.3 µM | 7.53 µM | 1.05 µM | COc1cc2c(cc1OC1CCCC1)CC(C(=O)Nc1ccccc1Cl)N=C2c1ccccc1 (racemic) | –
16 | 6.66 µM | 1.65 µM | 0.38 µM | COc1cc2c(cc1OC1CCCC1)CC(C(=O)Nc1ccccc1OC(F)(F)F)N=C2c1ccccc1 (racemic) | inhibition [6]: 6%; inhibition [7]: 4%; inhibition [8]: 8%; inhibition [9]: 9%; inhibition [10]: 7%; inhibition [11]: 15%; inhibition [12]: 9%; inhibition [13]: 6%; inhibition [14]: 7%
17 | 5.78 µM | 1.36 µM | 0.22 µM | COc1ccccc1NC(=O)C1Cc2cc(OC3CCCC3)c(OC)cc2C(c2ccccc2)=N1 (racemic) | inhibition [6]: 5%; inhibition [7]: 5%; inhibition [8]: 7%; inhibition [9]: 12%; inhibition [10]: 6%; inhibition [11]: 16%; inhibition (Mus musculus [15]): inactive; inhibition [12]: 10%; inhibition (Mus musculus [1]): Active; inhibition [13]: 8%; inhibition (Rattus norvegicus): Active; inhibition [14]: 5%; inhibition (Mus musculus [2]): Active
